From PubChem BioAssay (NCI)
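Exposure lasted 48 hours, with cells grown in 96-well plates and compounds tested at five concentrations. Definition used: TGI = concentration required for complete inhibition of growth.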

How the values were obtained:
Experiment in all cases: growth of human tumour cells (NCI), 48 h
A498 renal = system: A498 renal
NCI/ADR-RES ovarian = system: NCI/ADR-RES ovarian
MCF7 breast = system: MCF7 breast
NCI-H460 lung = system: NCI-H460 lung
HCT-116 colon = system: HCT-116 colon
SN12C renal = system: SN12C renal
A549 NSCLC = system: A549 NSCLC
KM12 colon = system: KM12 colon
EKVX NSCLC = system: EKVX NSCLC
NCI-H226 lung = system: NCI-H226 lung
UO-31 renal = system: UO-31 renal
RPMI-8226 leukemia = system: RPMI-8226 leukemia
NCI-H522 lung = system: NCI-H522 lung
PC-3 prostate = system: PC-3 prostate
UACC-257 melanoma = system: UACC-257 melanoma
MDA-MB-231 breast = system: MDA-MB-231 breast
COLO 205 colon = system: COLO 205 colon
T-47D breast = system: T-47D breast
OVCAR-5 ovarian = system: OVCAR-5 ovarian
ACHN renal = system: ACHN renal
HCC-2998 colon = system: HCC-2998 colon
M14 melanoma = system: M14 melanoma
CAKI-1 renal = system: CAKI-1 renal
HOP-92 NSCLC = system: HOP-92 NSCLC
SK-MEL-28 melanoma = system: SK-MEL-28 melanoma
MDA-N = system: MDA-N
DU-145 prostate = system: DU-145 prostate
MALME-3M melanoma = system: MALME-3M melanoma
TK-10 renal = system: TK-10 renal
SF-539 CNS = system: SF-539 CNS
SNB-75 CNS = system: SNB-75 CNS
SW-620 colon = system: SW-620 colon
SNB-19 CNS = system: SNB-19 CNS
NCI-H23 lung = system: NCI-H23 lung
HS 578T breast = system: HS 578T breast
SK-MEL-2 melanoma = system: SK-MEL-2 melanoma
UACC-62 melanoma = system: UACC-62 melanoma
HT29 colon = system: HT29 colon
OVCAR-3 ovarian = system: OVCAR-3 ovarian
U251 CNS = system: U251 CNS
SK-OV-3 ovarian = system: SK-OV-3 ovarian
SF-268 CNS = system: SF-268 CNS
OVCAR-4 ovarian = system: OVCAR-4 ovarian
MOLT-4 leukemia = system: MOLT-4 leukemia
MDA-MB-435 = system: MDA-MB-435
HOP-62 NSCLC = system: HOP-62 NSCLC
IGROV1 ovarian = system: IGROV1 ovarian
SF-295 CNS = system: SF-295 CNS
786-0 renal = system: 786-0 renal
LOX IMVI melanoma = system: LOX IMVI melanoma
RXF 393 renal = system: RXF 393 renal
HCT-15 colon = system: HCT-15 colon
OVCAR-8 ovarian = system: OVCAR-8 ovarian
BT-549 breast = system: BT-549 breast
HL-60(TB) leukemia = system: HL-60(TB) leukemia
SR leukemia = system: SR leukemia
K-562 leukemia = system: K-562 leukemia
SK-MEL-5 melanoma = system: SK-MEL-5 melanoma

Measured: TGI

CCCSC1=N/C(=C\c2ccco2)C(=O)N1
not listed: HL-60(TB) leukemia | SR leukemia | K-562 leukemia | SK-MEL-5 melanoma
> 100 µM: all other assays above

O=C1C[C@@]23CCC4(CC2=CCC[C@H]3O1)OCCO4
not listed: UO-31 renal | SNB-75 CNS | OVCAR-8 ovarian | BT-549 breast
> 100 µM: all other assays above
